Laboratory results published in US9000162B2, “5,8-difluoro-4-(2-(4-(heteroaryloxy)-phenyl)ethylamino)quinazolines and their use as agrochemicals” (Dow AgroSciences LLC, priority 2008, dated 2015).

How the values were obtained:
Format in all cases: in vivo
[1] = test system: Pseudoperonospora cubensis (PSPECU); assay: Cucumber downy mildew foliar protectant test; conditions: 200 ppm foliar, inoculated one day after treatment, read-out: Activity against fungal diseases PSPECU
Method: The plants were inoculated with the fungus one day after treatment. ***=80-100% control; **=50-79% control; *=0-49% control. It will be understood by those in the art that the efficacy of the compounds against the foregoing fungi establishes the general utility of the compounds as fungicides. The activity of the compounds as effective fungicides was determined by applying the compounds to plants and observing control of fungal disease. […] All plants were inoculated with spores of the fungus the day after treatment, then incubated in an environment conducive to disease development. Disease severity was evaluated 4 to 25 days later, depending on the speed of disease development. The following experiments were performed in the laboratory to determine the fungicidal efficacy of the compounds of the invention. Cucumber Downy Mildew (Causal Agent Pseudoperonospora cubensis; Bayer Code […]): Cucumber plants (variety “Bush Champion' or 'Bush Pickle Hybrid') were grown from seed in a soil-less peat-based potting mixture (Metromix) until the first true leaf was 20-80% expanded. Each pot contained 1 seedling. These plants were sprayed until wet with the formulated test compound. On the following day, the leaves were inoculated with an aqueous suspension of downy mildew sporangia and the plants were kept in high humidity for one day to permit sporangia to germinate and infect the leaf. The plants were then incubated in a growth chamber until disease developed on untreated control plants. Table 1 presents the activity of typical compounds of the present invention when evaluated in these experiments. The effectiveness of the test compounds at controlling disease when sprayed on leaves was determined by assessing the severity of disease on treated plants, then converting the severity to percent control based on the level of disease on untreated, inoculated plants.

[2] = test system: Puccinia recondita tritici (PUCCRT); assay: Leaf rust of wheat foliar protectant test; conditions: 200 ppm foliar, inoculated one day after treatment, read-out: Activity against fungal diseases PUCCRT
Method: (§1) The plants were inoculated with the fungus one day after treatment. ***=80-100% control; **=50-79% control; *=0-49% control. It will be understood by those in the art that the efficacy of the compounds against the foregoing fungi establishes the general utility of the compounds as fungicides. The activity of the compounds as effective fungicides was determined by applying the compounds to plants and observing control of fungal disease. […] All plants were inoculated with spores of the fungus the day after treatment, then incubated in an environment conducive to disease development. Disease severity was evaluated 4 to 25 days later, depending on the speed of disease development. The following experiments were performed in the laboratory to determine the fungicidal efficacy of the compounds of the invention. […] Each pot contained 3-8 seedlings. These plants were sprayed until wet with the formulated test compounds. On the following day, the leaves were inoculated with an aqueous spore suspension of Puccinia recondita tritici and the plants were kept in high humidity overnight to permit spores to germinate and infect the leaf. The plants were then transferred to a greenhouse until disease developed on untreated control plants. Table 1 presents the activity of typical compounds of the present invention when evaluated in these experiments. The effectiveness of the test compounds at controlling disease when sprayed on leaves was determined by assessing the severity of disease on treated plants, then converting the severity to percent control based on the level of disease on untreated, inoculated plants.

[3] = test system: Magnaporthe grisea = Pyricularia oryzae (PYRIOR); assay: whole plant or invertebrate; conditions: foliar, read-out: Activity against fungal diseases PYRIOR
[4] = test system: Septoria tritici (SEPTTR); assay: Septoria blotch of wheat foliar protectant test; conditions: Zymoseptoria tritici, read-out: Activity against fungal diseases SEPTTR; for pest or weed control at 25 ppm: foliar, Tested at 25 ppm (footnote b); for pest or weed control at 200 ppm: 200 ppm foliar, inoculated one day after treatment
Method: as §1, with “3-10” for “3-8”, “compound.” for “compounds.”, “Septoria” for “Puccinia recondita”, “(one day in a dark dew chamber followed by three days in a lighted dew chamber)” for “overnight”

Compound | pest or weed control at 200 ppm [1] | pest or weed control at 200 ppm [2] | pest or weed control at 200 ppm [3] | pest or weed control at 25 ppm [4] | pest or weed control at 200 ppm [4]
N#Cc1cc(Oc2ccc(CCNc3ncnc4c(F)ccc(F)c34)cc2)ncc1Cl [Compound 126] | 80 to 100% | 80 to 100% | 80 to 100% | 80 to 100% | –
COc1ccc(CCNc2ncnc3c(F)cc(F)c(F)c23)cc1C [Compound 68] | 50 to 79% | 0 to 49% | 80 to 100% | – | 0 to 49%
CC(C)Oc1cc(CCNc2ncnc3c(F)ccc(F)c23)ccc1Oc1cc(C(F)(F)F)ccn1 [Compound 58] | 80 to 100% | 80 to 100% | 80 to 100% | – | 80 to 100%
Fc1cc(CCNc2ncnc3c(F)ccc(F)c23)ccc1Oc1ccc(C(F)(F)F)cn1 [Compound 130] | 80 to 100% | 80 to 100% | 80 to 100% | – | 80 to 100%
COc1cc(C(F)(F)F)cc(Oc2ccc(CCNc3ncnc4c(F)ccc(F)c34)cc2)n1 [Compound 9] | 80 to 100% | 80 to 100% | 80 to 100% | – | 50 to 79%
Fc1cc(CCNc2ncnc3c(F)ccc(F)c23)ccc1Oc1ncc(C(F)(F)F)cc1F [Compound 131] | 80 to 100% | 80 to 100% | 80 to 100% | – | 80 to 100%
Oc1ccc2c(c1)CC(Nc1ncnc3c(F)ccc(F)c13)C2 (centres unmarked) [Compound 106] | 50 to 79% | 50 to 79% | 50 to 79% | – | 0 to 49%
Cc1cc(CCNc2ncnc3c(F)ccc(F)c23)ccc1Oc1cc(C(F)(F)F)ncn1 [Compound 117] | 80 to 100% | 80 to 100% | 80 to 100% | 80 to 100% | –
Fc1ccc(F)c2c(NC3Cc4ccc(Oc5ccc(C(F)(F)F)cn5)cc4C3)ncnc12 (centres unmarked) [Compound 111] | 80 to 100% | 80 to 100% | 80 to 100% | – | 80 to 100%
CC(F)(F)c1ccnc(Oc2ccc(CCNc3ncnc4c(F)ccc(F)c34)cc2)c1 [Compound 12] | 80 to 100% | 80 to 100% | 80 to 100% | – | 80 to 100%
Fc1ccc(F)c2c(NC3Cc4ccc(Oc5cc(C(F)(F)F)ccn5)cc4C3)ncnc12 (centres unmarked) [Compound 110] | 80 to 100% | 80 to 100% | 80 to 100% | – | 80 to 100%
Cc1cc(Oc2cc(C(F)(F)F)ccn2)c(C)cc1CCNc1ncnc2c(F)ccc(F)c12 [Compound 19] | 80 to 100% | 80 to 100% | 80 to 100% | – | 80 to 100%
COc1ccc(CCNc2ncnc3c(F)ccc(F)c23)cc1C [Compound 21] | 80 to 100% | 50 to 79% | 50 to 79% | 0 to 49% | –
Fc1cc(CCNc2ncnc3c(F)ccc(F)c23)ccc1Oc1cc(C(F)(F)F)ncn1 [Compound 132] | 80 to 100% | 80 to 100% | 80 to 100% | – | 80 to 100%
Fc1nc(C(F)(F)F)nc(Oc2ccc(CCNc3ncnc4c(F)ccc(F)c34)cc2)c1F [Compound 100] | 80 to 100% | 0 to 49% | 0 to 49% | – | 0 to 49%
COc1ccc(CCNc2ncnc3c(F)ccc(F)c23)cc1Br [Compound 32] | 80 to 100% | 80 to 100% | 50 to 79% | – | 0 to 49%
COC(=O)c1cnc(Oc2ccc(CCNc3ncnc4c(F)ccc(F)c34)cc2)cc1C(F)(F)F [Compound 28] | 80 to 100% | 80 to 100% | 80 to 100% | 80 to 100% | –
Cc1cc(Oc2cc(C(F)(F)F)ccn2)ccc1CCNc1ncnc2c(F)ccc(F)c12 [Compound 55] | 80 to 100% | 80 to 100% | 80 to 100% | – | 80 to 100%
COc1cc(CCNc2ncnc3c(F)ccc(F)c23)ccc1Oc1ncc(F)c(C(F)(F)F)c1F [Compound 53] | 80 to 100% | 80 to 100% | 80 to 100% | – | 80 to 100%
Cc1cc(CCNc2ncnc3c(F)cc(F)c(F)c23)ccc1Oc1cc(C(F)(F)F)cc[n+]1[O-] [Compound 81] | 80 to 100% | 80 to 100% | 80 to 100% | – | 80 to 100%
Fc1ccc(F)c2c(NCCc3ccc(Oc4cc(C(F)(F)F)ccn4)c(Cl)c3)ncnc12 [Compound 90] | 80 to 100% | 80 to 100% | 80 to 100% | – | 80 to 100%
Oc1ccc(CCNc2ncnc3c(F)cc(F)c(F)c23)cc1 [Compound 27] | 0 to 49% | 0 to 49% | 0 to 49% | – | 0 to 49%
CC(F)(F)c1cc[n+]([O-])c(Oc2ccc(CCNc3ncnc4c(F)ccc(F)c34)cc2)c1 [Compound 10] | 80 to 100% | 80 to 100% | 50 to 79% | – | 80 to 100%
COc1cc(C(C)(F)F)cc(Oc2ccc(CCNc3ncnc4c(F)ccc(F)c34)cc2)n1 [Compound 11] | 80 to 100% | 80 to 100% | 50 to 79% | – | 80 to 100%
COc1ccc(CCNc2ncnc3c(F)ccc(F)c23)c(F)c1 [Compound 72] | 80 to 100% | 80 to 100% | 80 to 100% | 0 to 49% | –
Oc1ccc(CCNc2ncnc3c(F)ccc(F)c23)cc1 [Compound 4] | 50 to 79% | 50 to 79% | 0 to 49% | – | 0 to 49%
Fc1ccc(F)c2c(NCCc3ccc(Oc4cc(Cl)ncn4)cc3)ncnc12 [Compound 127] | 80 to 100% | 80 to 100% | 80 to 100% | – | 0 to 49%
Oc1cc(CCNc2ncnc3c(F)ccc(F)c23)ccc1Oc1cc(C(F)(F)F)ccn1 [Compound 56] | 80 to 100% | 80 to 100% | 80 to 100% | – | 50 to 79%
COc1cc(CCNc2ncnc3c(F)ccc(F)c23)ccc1Oc1nc(C(F)(F)F)nc(F)c1F [Compound 101] | 80 to 100% | 50 to 79% | 0 to 49% | – | 0 to 49%
